# US20230265116A1, “DEGRADATION OF (EGFR) BY CONJUGATION OF EGFR INHIBITORS WITH E3 LIGASE LIGAND AND METHODS OF USE” (BEIGENE, LTD., priority 2020, published 2023)
# Read-outs that look alike come from different tables or passages of the source.
# Tests used:
# [1] = target: T1, EGFR L858R/T790M/C797S (BaF3-LTC cells) (Homo sapiens, UniProt P00533, C797S/L858R/T790M); experiment: EGFR degradation HTRF assay, BaF3-LTC cells; assay type: cell-based; conditions: BaF3-LTC, 16h treatment; for Dmax: maximum percentage of degradation, read-out: LTC Dmax (%); for DC50: read-out: LTC DC50
# T1 construct: expressed in transfected cells; host or cells: BaF3
# T1 sequence (P00533 25-1210 T790M/C797S/L858R): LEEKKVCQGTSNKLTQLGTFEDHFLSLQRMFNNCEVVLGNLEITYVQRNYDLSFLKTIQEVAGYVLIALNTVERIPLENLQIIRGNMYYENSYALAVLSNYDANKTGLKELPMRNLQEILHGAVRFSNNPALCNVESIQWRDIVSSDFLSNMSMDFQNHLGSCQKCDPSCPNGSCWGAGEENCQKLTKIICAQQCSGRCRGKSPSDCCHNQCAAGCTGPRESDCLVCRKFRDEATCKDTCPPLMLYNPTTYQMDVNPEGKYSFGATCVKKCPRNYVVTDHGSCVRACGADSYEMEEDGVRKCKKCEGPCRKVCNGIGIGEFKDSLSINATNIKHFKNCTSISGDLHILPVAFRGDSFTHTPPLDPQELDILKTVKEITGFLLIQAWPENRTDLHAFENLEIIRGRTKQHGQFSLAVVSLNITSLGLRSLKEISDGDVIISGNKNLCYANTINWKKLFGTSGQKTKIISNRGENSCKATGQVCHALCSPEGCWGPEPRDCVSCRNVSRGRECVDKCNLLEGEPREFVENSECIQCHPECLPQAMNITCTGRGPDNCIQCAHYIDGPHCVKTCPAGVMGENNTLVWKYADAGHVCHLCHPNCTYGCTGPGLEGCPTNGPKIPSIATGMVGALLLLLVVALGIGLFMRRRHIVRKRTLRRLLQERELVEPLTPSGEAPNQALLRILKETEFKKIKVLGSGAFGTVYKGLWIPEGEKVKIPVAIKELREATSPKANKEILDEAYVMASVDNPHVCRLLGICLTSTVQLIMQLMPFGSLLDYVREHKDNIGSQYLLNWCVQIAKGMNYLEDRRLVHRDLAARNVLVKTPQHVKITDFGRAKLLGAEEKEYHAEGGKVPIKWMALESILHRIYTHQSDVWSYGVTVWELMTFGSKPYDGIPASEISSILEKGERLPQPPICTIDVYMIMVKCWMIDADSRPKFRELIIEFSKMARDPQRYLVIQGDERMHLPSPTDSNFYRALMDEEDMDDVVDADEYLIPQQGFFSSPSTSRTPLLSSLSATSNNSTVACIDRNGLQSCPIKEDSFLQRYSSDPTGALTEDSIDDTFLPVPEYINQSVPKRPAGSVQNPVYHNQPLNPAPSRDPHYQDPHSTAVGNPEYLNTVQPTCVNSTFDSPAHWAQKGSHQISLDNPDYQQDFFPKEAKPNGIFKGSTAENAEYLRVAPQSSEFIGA
# Procedure, shortened: (§1)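 EGFR remaining after a 16 h, 37 °C exposure (8 doses, 5-fold steps from 10 uM final, 0.2% DMSO) was quantified by HTRF antibodies in cell lysate. Percent inhibition relative to DMSO control was fitted by four-parameter logistic to give DC50; Dmax denotes maximal degradation.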
# [2] = tested on: EGFR Del19/T790M/C797S (BaF3-DTC cells); experiment: EGFR degradation HTRF assay, BaF3-DTC cells; assay type: cell-based; conditions: for DTC Dmax (%): maximum percentage of degradation
# Procedure, shortened: as §1
# [3] = 16h treatment, read-out: DTC DC50
SMILES,Dmax [1] [%],DC50 [1] [nM],DTC Dmax (%) ([2]; 16h treatment),"DC50 [2, 3] [nM]","DC50 ([2]; read-out: DTC DC50, 16h treatment) [nM]"
"CCc1cc(Nc2ncc(Br)c(Nc3ccc4nc(C)ccc4c3P(C)(C)=O)n2)c(OC)cc1N1CCC(N2CCN(CCc3ccc4nn(C5CCC(=O)NC5=O)cc4c3)CC2)CC1 (stereo not drawn) [Example 257, 3-(5-(2-(4-(1-(4-((5-bromo-4-((5-(dimethylphosphoryl)-2-methylquinolin-6-yl)amino)pyrimidin-2-yl)amino)-2-ethyl-5-methoxyphenyl)piperidin-4-yl)piperazin-1-yl)ethyl)-2H-indazol-2-yl)piperidine-2,6-dione]",90.7,17.4,93.75,3.94,
"CCc1cc(Nc2ncc(Br)c(Nc3ccc4nc(C)ccc4c3P(C)(C)=O)n2)c(OC)cc1N1CCC(N2CCN(CCN(C)c3cccc4c3CN(C3CCC(=O)NC3=O)C4=O)CC2)CC1 (stereo not drawn) [Example 256, 3-(4-((2-(4-(1-(4-((5-bromo-4-((5-(dimethylphosphoryl)-2-methylquinolin-6-yl)amino)pyrimidin-2-yl)amino)-2-ethyl-5-methoxyphenyl)piperidin-4-yl)piperazin-1-yl)ethyl)(methyl)amino)-1-oxoisoindolin-2-yl)piperidine-2,6-dione]",91.8,7.84,94.38,1.78,
"CCc1cc(Nc2ncc(Br)c(Nc3ccc4ncn(C)c(=O)c4c3P(C)(C)=O)n2)c(OC)cc1N1CCC(N2CCN(CCc3cccc4c3n(C)c(=O)n4C3CCC(=O)NC3=O)CC2)CC1 (stereo not drawn) [Example 698, 3-(4-(2-(4-(1-(4-((5-bromo-4-((5-(dimethylphosphoryl)-3-methyl-4-oxo-3,4-dihydroquinazolin-6-yl)amino)pyrimidin-2-yl)amino)-2-ethyl-5-methoxyphenyl)piperidin-4-yl)piperazin-1-yl)ethyl)-3-methyl-2-oxo-2,3-dihydro-1H-benzo[d]imidazol-1-yl)piperidine-2,6-dione]",93.6,4.28,94.26,0.601,
"CCc1cc(Nc2ncc(Br)c(Nc3ccc4c(=O)n(C)ccc4c3P(C)(C)=O)n2)c(OC)cc1N1CCC(N2CCN(CCc3cc(F)c(C4CCC(=O)NC4=O)c(F)c3)CC2)CC1 (stereo not drawn) [Example 429, 3-(4-(2-(4-(1-(4-((5-bromo-4-((5-(dimethylphosphoryl)-2-methyl-1-oxo-1,2-dihydroisoquinolin-6-yl)amino)pyrimidin-2-yl)amino)-2-ethyl-5-methoxyphenyl)piperidin-4-yl)piperazin-1-yl)ethyl)-2,6-difluorophenyl)piperidine-2,6-dione]",91.3,5.15,94.9,2.33,
"CCc1cc(Nc2ncc(Br)c(Nc3ccc4nccnc4c3P(C)(C)=O)n2)c(OC)cc1N1CCC(N2CCN(CC3CCN(c4cccc(C5CCC(=O)NC5=O)c4)CC3)CC2)CC1 (stereo not drawn) [Example 264, 3-(3-(4-((4-(1-(4-((5-bromo-4-((5-(dimethylphosphoryl)quinoxalin-6-yl)amino)pyrimidin-2-yl)amino)-2-ethyl-5-methoxyphenyl)piperidin-4-yl)piperazin-1-yl)methyl)piperidin-1-yl)phenyl)piperidine-2,6-dione]",86.2,61,74.58,17.1,
"CCc1cc(Nc2ncc(Br)c(Nc3ccc4nccnc4c3P(C)(C)=O)n2)c(OC)cc1N1CCC(N2CCN(C(=O)C3CN(c4ccc5c(c4)C(=O)N(C4CCC(=O)NC4=O)C5)C3)CC2)CC1 (stereo not drawn) [Example 227, 3-(6-(3-(4-(1-(4-((5-bromo-4-((5-(dimethylphosphoryl)quinoxalin-6-yl)amino)pyrimidin-2-yl)amino)-2-ethyl-5-methoxyphenyl)piperidin-4-yl)piperazine-1-carbonyl)azetidin-1-yl)-1-oxoisoindolin-2-yl)piperidine-2,6-dione]",91.8,10.3,90.5,4.87,
CCc1cc(Nc2ncc(Br)c(Nc3ccc4nccnc4c3P(C)(C)=O)n2)c(OC)cc1N1CCC(N2CCN(C3CN(c4ccc(C5CCC(=O)NC5=O)cc4)C3)CC2)CC1 (stereo not drawn) [Example 250],73.8,24.8,75.19,11.1,
"COc1cc(N2CCC(N3CCN(CCC4CCN(c5cc(F)c(C6CCC(=O)NC6=O)c(F)c5)CC4)CC3)CC2)c(C)cc1Nc1ncc(Br)c(Nc2ccc3nc(C)ccc3c2P(C)(C)=O)n1 (stereo not drawn) [Example 217, 3-(4-(4-(2-(4-(1-(4-((5-bromo-4-((5-(dimethylphosphoryl)-2-methylquinolin-6-yl)amino)pyrimidin-2-yl)amino)-5-methoxy-2-methylphenyl)piperidin-4-yl)piperazin-1-yl)ethyl)piperidin-1-yl)-2,6-difluorophenyl)piperidine-2,6-dione]",89.6,86.8,90.75,29.7,
"CCc1cc(Nc2ncc(Br)c(Nc3ccc4nccnc4c3P(C)(C)=O)n2)c(OC)cc1N1CCC(N2CCN(CC3CN(c4ccc(C5CCC(=O)NC5=O)cc4)C3)CC2)CC1 (stereo not drawn) [Example 231, 3-(4-(3-((4-(1-(4-((5-bromo-4-((5-(dimethylphosphoryl)quinoxalin-6-yl)amino)pyrimidin-2-yl)amino)-2-ethyl-5-methoxyphenyl)piperidin-4-yl)piperazin-1-yl)methyl)azetidin-1-yl)phenyl)piperidine-2,6-dione]",77.6,25.3,76.04,8.28,
"CCc1cc(Nc2ncc(Br)c(Nc3ccc4nccnc4c3P(C)(C)=O)n2)c(OC)cc1N1CCC(N2CCN(C[C@H]3C[C@H](c4ccc(NC5CCC(=O)NC5=O)cc4)C3)CC2)CC1 (stereo partly drawn) [Example 284, 3-((4-((1r,3r)-3-((4-(1-(4-((5-bromo-4-((5-(dimethylphosphoryl)quinoxalin-6-yl)amino)pyrimidin-2-yl)amino)-2-ethyl-5-methoxyphenyl)piperidin-4-yl)piperazin-1-yl)methyl)cyclobutyl)phenyl)amino)piperidine-2,6-dione]",75.5,81.4,77.49,61.2,
"CCc1cc(Nc2ncc(Br)c(Nc3ccc4nc(C)ccc4c3P(C)(C)=O)n2)c(OC)cc1N1CCC(N2CCN(C(=O)C3CN(CCc4cc(F)c(C5CCC(=O)NC5=O)c(F)c4)C3)CC2)CC1 (stereo not drawn) [Example 708, 3-(4-(2-(3-(4-(1-(4-((5-bromo-4-((5-(dimethylphosphoryl)-2-methylquinolin-6-yl)amino)pyrimidin-2-yl)amino)-2-ethyl-5-methoxyphenyl)piperidin-4-yl)piperazine-1-carbonyl)azetidin-1-yl)ethyl)-2,6-difluorophenyl)piperidine-2,6-dione]",91.3,22.7,81.62,15.2,
"CCc1cc(Nc2ncc(Br)c(Nc3ccc4nc(C)ccc4c3P(C)(C)=O)n2)c(OC)cc1N1CCC(N2CCN(C(=O)[C@H]3C[C@H](Nc4cc(F)c(C5CCC(=O)NC5=O)c(F)c4)C3)CC2)CC1 (stereo partly drawn) [Example 209, 3-(4-(((1r,3r)-3-(4-(1-(4-((5-bromo-4-((5-(dimethylphosphoryl)-2-methylquinolin-6-yl)amino)pyrimidin-2-yl)amino)-2-ethyl-5-methoxyphenyl)piperidin-4-yl)piperazine-1-carbonyl)cyclobutyl)amino)-2,6-difluorophenyl)piperidine-2,6-dione]",95.5,3.92,96.2,2.1,
"COc1cc(N2CCC(N3C[C@@H]4C[C@H]3CN4CCC3CCN(c4cc(F)c(C5CCC(=O)NC5=O)c(F)c4)CC3)CC2)c(C)cc1Nc1ncc(Br)c(Nc2ccc3nccnc3c2P(C)(C)=O)n1 (stereo partly drawn) [Example 268, 3-(4-(4-(2-((1S,4S)-5-(1-(4-((5-bromo-4-((5-(dimethylphosphoryl)quinoxalin-6-yl)amino)pyrimidin-2-yl)amino)-5-methoxy-2-methylphenyl)piperidin-4-yl)-2,5-diazabicyclo[2.2.1]heptan-2-yl)ethyl)piperidin-1-yl)-2,6-difluorophenyl)piperidine-2,6-dione]",90.5,33.5,93.75,22,
"CCc1cc(Nc2ncc(Br)c(Nc3ccc4nc(C)ccc4c3P(C)(C)=O)n2)c(OC)cc1N1CCC(N2CCN(C(=O)C3CCN(c4ccc5c(c4)C(C)(C)C(=O)N5C4CCC(=O)NC4=O)CC3)CC2)CC1 (stereo not drawn) [Example 436, 3-(5-(4-(4-(1-(4-((5-bromo-4-((5-(dimethylphosphoryl)-2-methylquinolin-6-yl)amino)pyrimidin-2-yl)amino)-2-ethyl-5-methoxyphenyl)piperidin-4-yl)piperazine-1-carbonyl)piperidin-1-yl)-3,3-dimethyl-2-oxoindolin-1-yl)piperidine-2,6-dione]",92.5,3.2,89.14,,2.38
"CCc1cc(Nc2ncc(Br)c(Nc3ccc4nc(C)ccc4c3P(C)(C)=O)n2)c(OC)cc1N1CCC(N2CCN(CCN(C)c3cc(F)c(C4CCC(=O)NC4=O)c(F)c3)CC2)CC1 (stereo not drawn) [Example 433, 3-(4-((2-(4-(1-(4-((5-bromo-4-((5-(dimethylphosphoryl)-2-methylquinolin-6-yl)amino)pyrimidin-2-yl)amino)-2-ethyl-5-methoxyphenyl)piperidin-4-yl)piperazin-1-yl)ethyl)(methyl)amino)-2,6-difluorophenyl)piperidine-2,6-dione]",90.8,9.35,93.56,4.29,
